# Results published in US20050256184A1, “1,2,4-Trioxanes and 1,2,4-trioxepanes” (priority 2004, published 2005).
# Tested on: not given
# Assay: not given
# Conditions: not given
row,melting point,Compound
1,154 °C,"CC1(CS(=O)(=O)c2ccccc2)COC2(CCC(C(C)(C)C)CC2)OO1 (stereo not drawn) [8g, 3-Benzenesulfonylmethyl-9-tert-butyl-3-methyl-1,2,5-trioxa-spiro[5.5]undecane]"
2,126 to 127 °C,"CC1(CS(=O)(=O)c2ccccc2)COC2(OO1)C1CC3CC(C1)CC2C3 (stereo not drawn) [8f, Adamantyl sulfone trioxane]"
3,123 to 124 °C,"CC1(CS(=O)(=O)c2ccccc2)COC2(CCCCCCCCCCC2)OO1 (stereo not drawn) [8k, 3-Benzenesulfonylmethyl-3-methyl-1,2,5-trioxa-spiro[5.11]heptadecane]"
4,88 to 89 °C,"CC1(CS(=O)(=O)c2ccccc2)COC2(CCCCC2)OO1 (stereo not drawn) [8c, 3-Benzenesulfonylmethyl-3-methyl-1,2,5-trioxa-spiro[5.5]undecane]"
5,86 to 87 °C,"CC1(CS(=O)(=O)c2ccc(Cl)cc2)COC2(CCCCC2)OO1 (stereo not drawn) [8i, 3-(4-Chloro-benzenesulfonylmethyl)-3-methyl-1,2,5-trioxa-spiro[5.5]undecane]"
6,96 to 97 °C,"CC1(CS(=O)(=O)c2ccccc2)COC2(CCC2)OO1 (stereo not drawn) [8e, 7-Benzenesulfonylmethyl-7-methyl-5,6,9-trioxa-spiro[3.5]nonane]"
7,96 °C,"CC1(CS(=O)(=O)c2ccccc2)COC2(CCC(=O)CC2)OO1 (stereo not drawn) [8h, 3-Benzenesulfonylmethyl-3-methyl-1,2,5-trioxa-spiro[5.5]undecan-9-one]"

# The next lines start with the compound.
row,Compound,melting point
1,"CC1(CSc2ccccc2)COC2(CCCCCCCCCCC2)OO1 (stereo not drawn) [4j, 3-Methyl-3-phenylsulfanylmethyl-1,2,5-trioxa-spiro[5.11]heptadecane]",89 °C
2,"CC1(CSc2ccc(Cl)cc2)COC2(CCCC2)OO1 (stereo not drawn) [4d, 8-(4-Chloro-phenylsulfanylmethyl)-8-methyl-6,7,10 trioxa-spiro[4.5]decane]",69.8 to 70 °C
3,"CC1(CSc2ccccc2)COC2(CCCCC2)OO1 (stereo not drawn) [4c, 3-Methyl-3-phenylsulfanylmethyl-1,2,5-trioxa-spiro[5.5]undecane]",45 to 46 °C
4,"CC1(CSc2ccc(Cl)cc2)COC2(CCCCCCCCCCC2)OO1 (stereo not drawn) [4k, 3-(4-Chloro-phenylsulfanylmethyl)-3-methyl-1,2,5-trioxa-spiro[5.11]heptadecane]",93 to 94 °C

# Tested on: K1 Plasmodium falciparum
# Assay: In vitro antimalarial activity, 48-h [3H]-hypoxanthine incorporation sensitivity assay
# Type: cell-based
# Conditions: Erythrocyte, K1 strain (chloroquine resistant) of Plasmodium falciparum in human erythrocytes, triplicate, read-out: IC50
# Description: Antimalarial activity. The K1 strain of Plasmodium falciparum was used in this study. This strain is known to be CQ resistant Parasites were maintained in continuous culture using the method of Jensen and Trager (Trager, W; Jenson, J. B. Human Malaria Parasites in Continuous Culture. Science, 1976, 193, 673-675). Cultures were grown in flasks containing human erythrocytes (2-5%) with parasitemia in the range of 1% to 10% suspended in RPMI 1640 medium supplemented with 25 mM HEPES and 32 mM NaHCO3, and 10% human serum (complete medium). Cultures were gassed with a mixture of 3% O2, 4% CO2 and 93% N2. Antimalarial activity was assessed with an adaption of the 48-h sensitivity assay of Desjardins et al. using [^3H]-hypoxanthine incorporation as an assessment of parasite growth (Desjardins, R. E.; Canfield, C. J.; Haynes, J. D.; Chulay, J. D. Quantitative Assessment of Antimalarial activity in vitro by Semi-automated Microdilution Technique. Antimicrob. Agents Chemother., 1979, 16, 710-718). Stock drug solutions were prepared in 100% dimethylsulphoxide (DMSO) and diluted to the appropriate concentration using complete medium. Assays were performed in sterile 96-well microtitre plates, each plate contained 200 μl of parasite culture (2% parasitemia, 0.5% haematocrit) with or without 10 μl drug dilutions. Each drug was tested in triplicate and parasite growth compared to control wells (which consituted 100% parasite growth). After 24-h incubation at 37° C., 0.5 μCi hypoxanthine was added to each well. Cultures were incubated for a further 24 h before they were harvested onto filter-mats, dried for 1 h at 55° C. and counted using a Wallac 1450 Microbeta Trilux Liquid scintillation and luminescence counter. IC50 values were calculated by interpolation of the probit transformation of the log dose-response curve.
row,IC50,Compound
1,329 nM,"CC1(CS(=O)(=O)c2ccccc2)COC2(OO1)C1CC3CC(C1)CC2C3 (stereo not drawn) [8f, Adamantyl sulfone trioxane]"
2,35 nM,"CC1(CS(=O)(=O)c2ccc(Cl)cc2)COC2(CCCCC2)OO1 (stereo not drawn) [8i, 3-(4-Chloro-benzenesulfonylmethyl)-3-methyl-1,2,5-trioxa-spiro[5.5]undecane]"

# More lines, now with the values behind:
row,Compound,IC50
1,"C[C@@H]1CC[C@H]2[C@@H](C)C(=O)O[C@@H]3O[C@@]4(C)CC[C@@H]1[C@]32OO4 [Artemisinin, reference compound]",12 nM
2,"CC1(CSc2ccccc2)COC2(CCC2)OO1 (stereo not drawn) [4e, 7-Methyl-7-phenylsulfanylmethyl-5,6,9-trioxa-spiro[3.5]nonane]",314 nM
3,"CC1(CSc2ccccc2)COC2(CCCCCCCCCCC2)OO1 (stereo not drawn) [4j, 3-Methyl-3-phenylsulfanylmethyl-1,2,5-trioxa-spiro[5.11]heptadecane]",135 nM
4,"CC1(CSc2ccccc2)COC2(OO1)C1CC3CC(C1)CC2C3 (stereo not drawn) [4f, Adamantyl Trioxane]",285 nM

# Same assay, conditions: Plasmodium falciparum, K1, Erythrocyte
row,Compound,IC50
1,"CCN(CC)CCCC(C)Nc1ccnc2cc(Cl)ccc12 (stereo not drawn) [Chloroquine, reference compound]",210 nM
